For assay [1], the target named is human histamine H1 receptor (Homo sapiens, UniProt P35367). Put plainly: In vitro human histamine H1 receptor binding experiment ([3H]pyrilamine, HEK293A cells stably expressing the receptor). As to conditions: [3H]pyrilamine 3 nmol/L, room temperature 60 minutes. The method, then: Recombinant human histamine H1 receptor plasmid (prepared by Invitrogen) was transfected to HEK293A cells with Lipofectamine 2000 (Invitrogen). Cells stably expressing human histamine H1 receptor were screened with Geneticin (Invitrogen). The cells were continued to be cultured using a Dulbecco's Modified Eagle Medium containing 10% fetal bovine serum, 0.1 mmol/L MEM Non-Essential Amino Acids Solution, 2 mmol/L L-glutamine and 0.7 mg/mL Geneticin in a 5% CO2 incubator at 37° C. The cells stably expressing human histamine H1 receptor were prepared using 50 mmol/L Tris-HCl (pH 7.5) (hereinafter referred to as buffer) containing 0.1% bovine serum albumin, so as to have a concentration of 3×10^6 cells/mL, to give a cell sample preparation. Fifty microliters of the buffer, 50 μL of a test substance solution at various concentrations, and 50 μL of [^3H]pyrilamine solution (final concentration: 3 nmol/L) were added to each of the wells on the 96-well plate, and stirred, and 100 μL of the cell sample preparation was then added thereto (at a concentration of 3×10^5 cells/well) to initiate the reaction.
The cells were incubated at room temperature for 60 minutes, and then filtered on UniFilter GF/C plate (Packard) immersed in 0.5% polyethyleneimine using a cell harvester (IH-110, INNOTECH CORPORATION), to stop the reaction, and the plate was washed with the buffer. The plate after washing was sufficiently dried, and 20 μL of a scintillator (MaxiLight, manufactured by Hidex) was added thereto, and count per minute (cpm) was measured with a multi-labeled microplate reader (Plate Chameleo II, Hidex). The nonspecific binding was cpm in a case where 30 μmol/L pyrilamine was added. The experiments were carried out at n=3, and at least repeated 3 times.

The target of another assay is T1, cerebral H1 receptor (Mus musculus, UniProt P70174).
T1 construct: The excised brain tissue was homogenized with Polytron (Kinematica); from tissue; host or cells: ICR mouse brain (entire brain except cerebellum and medulla oblongata), homogenate
Put plainly: Murine cerebral H1 receptor occupying content (ex vivo, 3H-pyrilamine binding in brain homogenate after oral administration). As to the method: A 6-week-old ICR male mouse was previously fed for one week or more by allowing the mouse to take a solid feed and tap water ad libitum, under the environment setting of a temperature of 22° C., humidity of 55% and an artificial illumination of 12 hours a day, and the mouse was fasted overnight to be used for the experiment. A substance to be tested was dissolved with water for injection or suspended in 0.5% carboxymethyl cellulose solution, and the solution or suspension was orally administered to the mouse (dose volume: 0.1 mL/10 g body weight). After 1 hour from the oral administration, the mouse was decapitated, and the entire brain, except for cerebellum and medulla oblongatae, was rapidly excised. The excised brain tissue was homogenized with Polytron (Kinematica) in an ice-cooled 50 mmol/L phosphate buffered saline (pH 7.4, 100 mg/1.9 mL).
To a test tube for reaction (TPX-Tube) were added 180 μL of the brain homogenate, and 10 μL of ^3H-pyrilamine solution (final concentration: 2 nmol/L) and 10 μL of a non-labeled pyrilamine solution (final concentration: 200 μmol/L) or a 50 mmol/L phosphate buffered saline, and the mixture was incubated at room temperature for 45 minutes, and 2.0 mL of an ice-cooled, 50 mmol/L phosphate buffered saline was then added thereto to stop the reaction. The reaction mixture was filtered with a GF/B filter ([…]), and the filtrate was placed in a vial and dried overnight at 60 degrees. After drying, 10 mL of a scintillator (AL-1, toluene-based, DOJINDO LABORATORIES) was added to the product, and the disintegration per minute (dpm) was measured with a liquid scintillation counter (Packard, U.S.A., TRI-CARB 2700TR) (5 minutes/vial).

Assay [2] deals with histamine-induced vascular hyperpermeability. Put plainly: Rat histamine-induced vascular hyperpermeability reaction (in vivo antihistamine action). To be noted: SD male rat, oral administration, histamine injected intracutaneously 1 hour after administration, leaked Evans Blue; read-out: ED50. As to the method:
An SD male rat (SPF) of 180 g in weight was previously fed for one week or more by allowing the rat to take a solid feed and tap water ad libitum, under the environment setting of a temperature of 22° C., humidity of 55% and an artificial illumination of 12 hours a day (light phase 8 am to 8 pm), and the rat was fasted overnight to be used for the experiment. Histamine.dihydrochloride (hereinafter referred to as histamine) and Evans Blue were used by dissolving each in physiological saline upon use. A substance to be tested was dissolved in water for injection or suspended in 0.5% carboxymethyl cellulose sodium, and the rat was orally administered with the solution or suspension (dose volume: 5 mL/kg body weight). After 1 hour from the administration, the physiological saline and the histamine solution were each intracutaneously injected to two locations (20 μg/0.05 ml/location) each on a back part of the rat of which hair was sheared with an electric clipper while anesthetizing with an ether. A 0.5% Evans Blue-containing physiological saline was injected into the tail vein of the rat (1 mL/200 g body weight) immediately before the intracutaneous injection of the histamine.
After 30 minutes, the animal was decapitated, and exsanguinated, and the skin was removed to measure an amount of leaked pigment in the blue-stained portion. The measurement of the amount of leaked pigment was carried out as follows. Skins of the pigment leaking site were cut out at two locations, 1 mL of a 2 mol/L aqueous potassium hydroxide solution was added thereto in a test tube, and the test tube was allowed to stand overnight at 37° C. to dissolve. Thereafter, 6 mL of a 1:3 mixed solution of 0.67 mol/L phosphoric acid and acetone was added to the solution, and the mixture was vigorously shaken for 10 minutes. Thereafter, the mixture was filtered, and the absorbance of the filtrate at 620 nm was measured. The absorbance obtained from the two locations of the sites injected with physiological saline, as blank value, was used for a compensation. The amount of leaked pigment was calculated from the calibration curve of Evans Blue at 620 nm.

[3] abbreviates: ICR male mouse, oral administration, brain excised after 1 hour, larger ID50 = lower brain transfer, read-out: ID50 (the source's name).

Counter-ions that a name gives are not always drawn. Like-named read-outs stand apart in the source and are kept apart here.

human histamine H1 receptor, sequence (P35367 whole entry): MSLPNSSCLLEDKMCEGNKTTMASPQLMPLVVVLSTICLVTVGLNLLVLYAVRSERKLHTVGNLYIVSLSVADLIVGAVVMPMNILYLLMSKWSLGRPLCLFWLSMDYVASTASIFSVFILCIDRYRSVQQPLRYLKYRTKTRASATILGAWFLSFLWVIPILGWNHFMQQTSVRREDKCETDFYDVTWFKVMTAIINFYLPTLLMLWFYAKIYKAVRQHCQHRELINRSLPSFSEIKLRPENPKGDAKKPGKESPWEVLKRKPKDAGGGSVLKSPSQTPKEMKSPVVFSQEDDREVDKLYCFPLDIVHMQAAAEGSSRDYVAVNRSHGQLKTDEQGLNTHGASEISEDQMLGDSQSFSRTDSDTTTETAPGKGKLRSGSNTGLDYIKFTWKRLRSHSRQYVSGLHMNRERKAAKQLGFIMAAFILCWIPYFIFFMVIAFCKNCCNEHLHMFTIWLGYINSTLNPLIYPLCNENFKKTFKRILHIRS
T1 sequence (P70174 whole entry): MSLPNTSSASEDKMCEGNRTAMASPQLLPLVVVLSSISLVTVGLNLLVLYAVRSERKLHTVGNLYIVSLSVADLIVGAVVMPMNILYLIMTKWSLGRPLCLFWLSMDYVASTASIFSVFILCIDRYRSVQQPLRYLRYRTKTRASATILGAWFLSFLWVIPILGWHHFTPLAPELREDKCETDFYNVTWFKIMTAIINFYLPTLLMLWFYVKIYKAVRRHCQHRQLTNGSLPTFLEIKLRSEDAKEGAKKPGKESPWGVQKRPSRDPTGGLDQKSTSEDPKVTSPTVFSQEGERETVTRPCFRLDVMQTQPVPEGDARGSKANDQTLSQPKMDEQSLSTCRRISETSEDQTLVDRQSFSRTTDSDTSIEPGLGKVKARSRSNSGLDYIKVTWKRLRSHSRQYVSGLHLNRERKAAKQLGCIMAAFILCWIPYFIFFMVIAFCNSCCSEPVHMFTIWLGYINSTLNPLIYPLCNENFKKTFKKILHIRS

`CCOC(=O)C(C)(C)c1ccc2c(c1)C(=CCCN(C)C)c1sccc1CO2` [Compound 21, Ethyl (E,Z)-2-[4-(3-dimethylaminopropylidene)-4,10-dihydro-9-oxa-3-thiabenzo[f]azulen-6-yl]-2-methylpropionate hydrochloride] had an IC50 in assay [1] of 74.7 nM.

In turn, `O=C(O)Cc1ccc2c(c1)/C(=C\CCN1CCC(=O)CC1)c1sccc1CO2` [Compound 62, (E)-{4-[3-(4-Oxopiperidin-1-yl)propylidene]-4,10-dihydro-9-oxa-3-thiabenzo[f]azulen-6-yl}acetic acid] yielded an IC50 in assay [1] of 60.5 nM.

Consider `O=C(O)Cc1ccc2c(c1)/C(=C/CCN1CCN(c3ccccc3)CC1)c1sccc1CO2` [Compound 55, (Z)-{4-[3-(4-Phenylpiperadin-1-yl)propylidene]-4,10-dihydro-9-oxa-3-thiabenzo[f]azulen-6-yl}acetic acid], for which the IC50 in assay [1] was found to be 19.6 nM.

The compound `CN(C)CC/C=C1\c2cc(CCC(=O)O)ccc2OCc2sccc21` [Compound 56, (E)-3-[4-(3-Dimethylaminopropylidene)-4,10-dihydro-9-oxa-1-thiabenzo[f]azulen-6-yl]propionic acid hydrochloride] returned an IC50 in assay [1] of 29 nM.

With `CN(C)CC/C=C1/c2ccccc2CCc2sc(C(=O)O)cc21` [Compound 16, (Z)-[4-(3-Dimethylaminopropylidene)-9,10-dihydro-4H-1-thiabenzo[f]azulen-2-yl]carboxylic acid], the ED50 at cerebral H1 receptor (setting [3]) is 45.8 mg/kg; in assay [2] it was 0.299 mg/kg.

In assay [1], `CN(C)CC/C=C1\c2cc(CC(=O)O)ccc2CCc2ccsc21` [Compound 64, (E)-[4-(3-Dimethylaminopropylidene)-9,10-dihydro-4H-3-thiabenzo[f]azulen-6-yl]acetic acid] showed an IC50 of 8.56 nM.

Take `O=C(O)Cc1ccc2c(c1)/C(=C/CCN1CCOCC1)c1sccc1CO2` [Compound 33, (Z)-{4-[3-(Morpholin-4-yl)propylidene]-4,10-dihydro-9-oxa-3-thiabenzo[f]azulen-6-yl}acetic acid]: the ED50 on cerebral H1 receptor (setting [3]) was 21.1 mg/kg; in assay [2], about 0.3 mg/kg.

Turning to `CC(C)(C(=O)O)c1cc2c(s1)CCc1ccccc1/C2=C\CCN1CCCC1` [Compound 69, (E,Z)-2-Methyl-2-{4-[3-(pyrrolidin-1-yl)propylidene]-9,10-dihydro-4H-1-thiabenzo[f]azulen-2-yl}propionic acid], in assay [1], the IC50 came to 53.8 nM.

Turning to `CN(C)CC/C=C1/c2ccccc2CCc2sc(CC(=O)O)cc21.Cl` [Compound 18, (Z)-[4-(3-Dimethylaminopropylidene)-9,10-dihydro-4H-1-thiabenzo[f]azulen-2-yl]acetic acid hydrochloride], the ED50 was 2.1 mg/kg on cerebral H1 receptor (mouse, po, 1 h, read-out: ID50) and 0.063 mg/kg in assay [2].

`O=C(O)Cc1ccc2c(c1)/C(=C\CCNCc1ccccc1)c1sccc1CO2` [Compound 42, (E)-[4-(3-Benzylaminopropylidene)-4,10-dihydro-9-oxa-3-thiabenzo[f]azulen-6-yl]acetic acid]: in assay [1], the IC50 came to 99.8 nM.

For the compound `CCOC(=O)/C=C/c1ccc2c(c1)/C(=C/CCN(C)C)c1sccc1CO2` [Compound 13, Ethyl (E,Z)-3-[4-(3-dimethylaminopropylidene)-4,10-dihydro-9-oxa-3-thiabenzo[f]azulen-6-yl]acrylate hydrochloride], in assay [1], the 50% inhibitory concentration (IC50) was found to be 32.4 nM.

In assay [1], `O=C(O)Cc1ccc2c(c1)/C(=C\CCN1CCC(N3CCCCC3)CC1)c1sccc1CO2` [Compound 66, (E)-{4-[3-([1,4′]Bipiperidin-1′-yl)propylidene]-4,10-dihydro-9-oxa-3-thiabenzo[f]azulen-6-yl}acetic acid diformate] came in with a 50% inhibitory concentration (IC50) of 31.2 nM.

Consider `CN(C)CCC=C1c2ccccc2CCc2sc(C(=O)NCCO)cc21` [Compound 9, (E,Z)-4-(3-Dimethylaminopropylidene)-9,10-dihydro-4H-1-thiabenzo[f]azulene-2-carboxylic-(2-hydroxyethyl)amide hydrochloride], for which the half-maximal inhibitory concentration (IC50) in assay [1] is 55.7 nM.

On to `O=C(O)Cc1ccc2c(c1)/C(=C/CCNCc1ccccc1)c1sccc1CO2` [Compound 43, (Z)-[4-(3-Benzylaminopropylidene)-4,10-dihydro-9-oxa-3-thiabenzo[f]azulen-6-yl]acetic acid], for which the ED50 is over 80 mg/kg on cerebral H1 receptor (setting [3]) and 1.31 mg/kg in assay [2].

As to `CN(CC/C=C1\c2cc(CC(=O)O)ccc2OCc2ccsc21)Cc1ccccc1` [Compound 40], the IC50 in assay [1] worked out at 19.1 nM.

Regarding `O=C(O)Cc1ccc2c(c1)C(=CCCN1CCSCC1)c1sccc1CO2` [Compound 68, (E,Z)-{4-[3-(Thiomorpholin-4-yl)propylidene]-4,10-dihydro-9-oxa-3-thiabenzo[f]azulen-6-yl}acetic acid], in assay [1], the IC50 stood at 45.2 nM.

For the compound `O=C(O)Cc1ccc2c(c1)/C(=C/CCN1CCCCC1)c1sccc1CO2` [Compound 35, (Z)-{4-[3-(Piperidin-1-yl)propylidene]-4,10-dihydro-9-oxa-3-thiabenzo[f]azulen-6-yl}acetic acid], the ED50 at cerebral H1 receptor (setting [3]) is 65.7 mg/kg; in assay [2], about 0.1 mg/kg.

In assay [1], `CN(C)CCC=C1c2ccccc2CCc2sc(C(C)(C)C(=O)O)cc21` [Compound 23, (E,Z)-2-[4-(3-Dimethylaminopropylidene)-9,10-dihydro-4H-1-thiabenzo[f]azulen-2-yl]-2-methylpropionic acid] came in with a half-inhibitory concentration (IC50) of 74.6 nM.

For the compound `CN(C)CC/C=C1/c2cc(CC(=O)O)ccc2CCc2ccsc21` [Compound 65, (Z)-[4-(3-Dimethylaminopropylidene)-9,10-dihydro-4H-3-thiabenzo[f]azulen-6-yl]acetic acid hydrochloride], in assay [1], the concentration for half-maximal inhibition (IC50) worked out at 14 nM.

`O=C(O)Cc1ccc2c(c1)/C(=C\CCN1CCN(c3ccccc3)CC1)c1sccc1CO2` [Compound 54, (E)-{4-[3-(4-Phenylpiperadin-1-yl)propylidene]-4,10-dihydro-9-oxa-3-thiabenzo[f]azulen-6-yl}acetic acid]: the IC50 in assay [1] was 10.9 nM.

On to `CN1CCC(=C2c3ccccc3CC(=O)c3sccc32)CC1` [Ketotifen, reference compound], for which the ED50 in assay [2] turned out to be 0.54 mg/kg.

`CCOC(=O)c1ccc2c(c1)C(=CCCN(C)C)c1sccc1CO2` [Compound 3, Ethyl (E,Z)-4-(3-dimethylaminopropylidene)-4,10-dihydro-9-oxa-3-thiabenzo[f]azulene-6-carboxylate hydrochloride] came in with a half-maximal inhibitory concentration (IC50) in assay [1] of 22.2 nM.

In general, IC50 refers to the concentration needed to halve the response being measured. Read a low IC50 as greater potency.

These data come from patent US8653285B2 (Nippon Zoki Pharmaceutical Co., Ltd., priority 2008, dated 2014).
